Test results reported in patent US20240000756A1, “METHODS AND COMPOUNDS FOR TREATMENT OF AUTISM SPECTRUM DISORDER” (Crestone, Inc., priority 2020, published 2024).
≈ marks a conversion by molar mass, not a printed value. Like-named read-outs stand apart in the source and are kept apart here.

How the values were obtained:
[1] = Multiple ascending dose Phase 1b study, safety and pharmacokinetics in healthy adults; format: in vivo, human; conditions: for half-life / Tmax: both sexes, human, plasma, oral
Description: The study was performed at Quintiles Phase I Services in Overland Park, KS. […] The secondary objective was to determine the plasma pharmacokinetic characteristics of CRS3123 after multiple oral doses. An exploratory endpoint was the evaluation of the effect of CRS3123 on fecal microbiome.

C. difficile [2] = conditions: C. difficile clinical isolates, agar dilution; cited from earlier work
C. perfringens = C. perfringens clinical isolates, agar dilution; cited from earlier work
C. difficile [3] = conditions: cited from earlier work
[4] = Single ascending dose Phase 1a study, safety and pharmacokinetics in healthy adults
[5] = single dose, all TEAEs, combined
[6] = single dose, related to CRS3123 treatment, combined

O=c1cc(NCCCN[C@@H]2CCOc3c(Br)cc(Br)cc32)[nH]c2ccsc12 [CRS3123]
dose proportionality of exposure (Cmax, AUC0-12 Day 1; Cmax,ss, AUC0-τ Day 10) ([1]; 200-600 mg BID): less than proportional to the increase in dose
half-life ([1]; following a single dose, across 3 dose groups, read-out: geometric mean t1/2): 3.01 to 3.53 h
half-life ([1]; following 10 days of twice daily administration, across 3 dose groups, read-out: geometric mean t1/2,ss): 4.71 to 6.32 h
Tmax ([1]; following 10 days of twice daily administration, across 3 dose groups, read-out: median Tmax,ss): 1 to 2 h
Tmax ([1]; following a single dose, across 3 dose groups (200, 400, 600 mg), read-out: median Tmax): 2 to 3 h
QTcF interval ([1]; multiple ascending dose): no prolongation
overall safety and tolerability ([1]; multiple ascending dose, 200-600 mg BID, 10 days): generally safe and well tolerated
accumulation ([1]; multiple twice daily dosing for 10 days): minimal accumulation
fate of unchanged drug ([1]; single and multiple dose): retained in the GI tract and excreted in feces
MIC90 (C. difficile [2]): 1.0 µg/mL (≈ 1.95 µM)
MIC90 (C. perfringens): 0.25 µg/mL (≈ 0.487 µM)
activity in hamster model of C. difficile infection (C. difficile [3]): active
deaths, SAEs, severe or life-threatening TEAEs ([4]; single dose): no deaths, SAEs, or severe or life-threatening TEAEs
moderate TEAEs ([4]; single dose): 7.4%
overall safety and tolerability ([4]; single dose study): safe and well-tolerated
subjects reporting treatment-emergent adverse events (TEAEs) ([4]; single dose, CRS3123-treated subjects combined): 93.3%
TEAE frequency: abnormal urine analysis [4, 5]: 20.0%
TEAE frequency: decreased hemoglobin [4, 5]: 23.3%
TEAE frequency: headache [4, 5]: 20.0%
TEAE frequency: positive urine leukocyte esterase [4, 5]: 16.7%
treatment-related TEAE: abnormal urine analysis [4, 6]: 16.7%
treatment-related TEAE: decreased blood calcium [4, 6]: 13.3%
treatment-related TEAE: decreased hemoglobin [4, 6]: 16.7%
treatment-related TEAE: headache [4, 6]: 20.0%
dose proportionality of systemic exposure ([4]; single oral dose 100-1200 mg): did not appear to be dose-proportional
fraction absorbed ([4]; single oral dose 100-1200 mg, healthy fasted subjects): low but detectable fraction
metabolism ([4]; single oral dose, mass spectral analysis): metabolized in the body via glucuronidation
